Like-named read-outs stand apart in the source and are kept apart here. Where a SMILES comes first, the peptide text is derived from it. Bridges are numbered along the chain shown (N, C = ends). [ ]: non-standard residue; d: D form. The star is where a group is joined. NMeL = CN[C@@H](CC(C)C)C(=O)O; hCys = N[C@@H](CCS)C(=O)O; NMeA = CN[C@@H](C)C(=O)O; Piperidide = C1CCN(*)CC1; dNMeA = CN[C@H](C)C(=O)O
Test: Evaluation of cell membrane permeability (permeation test, permeability coefficient Papp)
Assay type: in vitro ADME
Details: dog
Method: 300 μL of MDCK II cells (ECACC standard cell line) at a density of 1.0×10^6 cells/mL were seeded in an insert (dedicated for a 24-well plate, pore diameter: 3.0 μm, manufactured by Corning Incorporated), and cultured at 37° C. in a 5% CO2 environment. After 3 days, the electric resistance value of the cell layer (measuring device: Millicell (registered trademark) ERS-2 (manufactured by Millipore Corporation), electrode: ENDOHM-6 (manufactured by WPI, Inc.)) was measured, and it was confirmed that the cell layer had high barrier properties (>100 (2 Ω·cm^2).
The insert was washed by being immersed in a Hank's Balanced Salt Solution (HBSS) (phenol red-free), 200 μL of a sample prepared at 10 μmol/L/HBSS was added thereto, and the insert was allowed to stand in a low-adsorption 24-well plate containing 900 μL of HBSS (37° C., 5% CO2). After 2 hours, each liquid of the upper layer (apical) and the lower layer (basal) of the insert (10 μL for apical and 500 μL for basal) was recovered. After testing, no leakage was confirmed with Lucifer Yellow, which is a non-permeable fluorescent dye.
The device used was LC/MS/MS (triple quadrupole type). […]
Based on the calculation expression shown in the following expression, a permeability coefficient Papp, which represents the membrane permeability, was calculated from each quantitative value. […]

| Compound | Papp A→B at 2 h, 10 μmol/L (MDCK) [×10⁻⁶ cm/s] | Papp A→B at 2 h, 10 μmol/L (MDCK II cells, 10 μmol/L sample in HBSS, 2 hours, 37° C., apical to basal, read-out: Cell membrane permeability Papp) [×10⁻⁶ cm/s] |
| --- | --- | --- |
| CC(C)C[C@@H]1NC(=O)[C@H](C)N(C)C(=O)[C@@H](C)N(C)C(=O)[C@H](CC(C)C)N(C)C(=O)[C@H](CC(C)C)N(C)C(=O)[C@H](CC(C)C)NC(=O)[C@H](CC(C)C)N(C)C(=O)CSCC[C@@H](C(=O)N2CCCCC2)NC(=O)[C@H](C)N(C)C(=O)[C@H](C)N(C)C1=O [Compound 1] ({CH2CO}-[NMeL]L[NMeL][NMeL][dNMeA][NMeA]L[NMeA][NMeA][hCys]-Piperidide; thioether N-10) | 1.1 |  |
| CC(C)C[C@@H]1NC(=O)[C@H](CC(C)C)N(C)C(=O)CSCC[C@@H](C(=O)N2CCCCC2)NC(=O)[C@H](C)N(C)C(=O)[C@@H]2CCCN2C(=O)[C@H](CC(C)C)N(C)C(=O)[C@H](C)NC(=O)[C@H](C)N(C)C(=O)[C@H](CC(C)C)N(C)C(=O)[C@H](CC(C)C)N(C)C1=O [Compound 2] ({CH2CO}-[NMeL]L[NMeL][NMeL][NMeA]A[NMeL]P[NMeA][hCys]-Piperidide; thioether N-10) |  | 0.04 |

From patent US20250232831A1, “METHOD FOR PREDICTING CELL MEMBRANE PERMEABILITY OF CYCLIC PEPTIDE” (FUJIFILM Corporation, priority 2022, published 2025)
